# Measured values published in US20090143279A1 (priority 2007, published 2009).
# Read-outs that look alike come from different tables or passages of the source.
# Assays:
# cytochrome c = assay type: cell-based, mouse; settings: for cyt c (composite Z-score): normalized score vs mock-treated (DMSO) wells
# [1] = test system: cellular dehydrogenase activity; settings: for MTT (composite Z-score): normalized score vs mock-treated (DMSO) wells
# C2C12 myotubes = settings: for Viability (composite Z-score): normalized score vs mock-treated (DMSO) wells
# nuOXPHOS transcripts = assay type: cell-based, mouse; settings: for nucOX (composite Z-score): normalized score vs mock-treated (DMSO) wells
# mtOXPHOS transcripts = assay type: cell-based, mouse; settings: for mitoOX (composite Z-score): normalized score vs mock-treated (DMSO) wells
# [2] = test system: mitochondrial membrane potential; assay type: cell-based, mouse; settings: for ΔΨm (composite Z-score): normalized score vs mock-treated (DMSO) wells
# reactive oxygen species = assay type: cell-based, mouse; settings: for ROS (composite Z-score): normalized score vs mock-treated (DMSO) wells
# OXPHOS gene expression = assay type: cell-based, mouse; settings: for GE-HTS (composite Z-score): normalized score vs mock-treated (DMSO) wells
# [3] = composite Z-score vs mock-treated (DMSO) wells, concentration of each compound in μM
# [4] = composite Z-score vs DMSO wells, Conc 20 μM
# [5] = composite Z-score vs mock-treated (DMSO) wells, Conc 20 μM
# [6] = 20 μM, composite Z-score vs DMSO
# [7] = 24.06 μM, composite Z-score vs DMSO
# [8] = composite Z-score vs DMSO, Conc 20 μM
compound,measurement,setting,value
CC[C@H](C)[C@H](N)C(=O)N1CCC[C@H]1C(=O)N[C@H](C(=O)O)[C@@H](C)CC [diprotin A],cyt c,cytochrome c; [3],−0.975
same,MTT,[1]; [3],−1.068
same,Viability,C2C12 myotubes; [3],−0.788
same,nucOX,nuOXPHOS transcripts; [3],−0.102
same,mitoOX,mtOXPHOS transcripts; [3],0.490
same,ΔΨm,[2]; [3],0.357
same,ROS,reactive oxygen species; [3],0.300
same,GE-HTS,OXPHOS gene expression; [3],0.099
CC(=O)Oc1cccc(C(=O)O)c1OC(C)=O [dipyrocetyl],cyt c (composite Z-score),cytochrome c; Conc 20 μM,0.865
same,MTT (composite Z-score),[1]; Conc 20 μM,−1.355
same,Viability (composite Z-score),C2C12 myotubes; Conc 20 μM,0.452
same,nucOX (composite Z-score),nuOXPHOS transcripts; Conc 20 μM,−0.242
same,mitoOX (composite Z-score),mtOXPHOS transcripts; Conc 20 μM,−0.341
same,ΔΨm (composite Z-score),[2]; Conc 20 μM,−0.363
same,ROS (composite Z-score),reactive oxygen species; Conc 20 μM,1.260
same,GE-HTS (composite Z-score),OXPHOS gene expression; Conc 20 μM,−0.311
Cc1c(N(C)CS(=O)(=O)[O-])c(=O)n(-c2ccccc2)n1C.[Na+] [dipyrone],cyt c,cytochrome c,0.356
same,cyt c,cytochrome c; [4],0.337
same,MTT,[1],−1.243
same,MTT,[1]; [4],−1.908
same,Viability,C2C12 myotubes,−0.607
same,Viability,C2C12 myotubes; [4],−0.809
same,nucOX,nuOXPHOS transcripts; [4],−0.930
same,mitoOX,mtOXPHOS transcripts; [4],−0.820
same,ΔΨm,[2],−0.738
same,ΔΨm,[2]; [4],−0.760
same,ROS,reactive oxygen species,−0.683
same,ROS,reactive oxygen species; [4],−1.148
same,GE-HTS,OXPHOS gene expression; [4],−0.955
NCCc1ccc(O)c(O)c1 [dopamine],cyt c,cytochrome c,0.007
same,MTT,[1],−0.754
same,Viability,C2C12 myotubes,−0.964
same,nucOX,nuOXPHOS transcripts,−0.112
same,mitoOX,mtOXPHOS transcripts,−0.655
same,ΔΨm,[2],−0.849
same,ROS,reactive oxygen species,−0.046
same,GE-HTS,OXPHOS gene expression,−0.337
"COc1ccc2c(c1OC)OC[C@@H](c1ccc(OC)c(OC)c1OC)C2 [duartin, dimethyl ether]",cyt c,cytochrome c; [5],−0.531
same,MTT,[1]; [5],−0.975
same,Viability,C2C12 myotubes; [5],1.330
same,nucOX,nuOXPHOS transcripts; [5],−1.362
same,mitoOX,mtOXPHOS transcripts; [5],−0.571
same,ΔΨm,[2]; [5],0.556
same,ROS,reactive oxygen species; [5],0.796
same,GE-HTS,OXPHOS gene expression; [5],−1.156
CCCCOc1ccc(C(=O)CCN2CCCCC2)cc1 [dyclonine],cyt c,cytochrome c,0.597
same,cyt c,cytochrome c; [4],1.243
same,MTT,[1]; [4],−0.882
same,Viability,C2C12 myotubes; [4],−0.640
same,nucOX,nuOXPHOS transcripts; [4],−0.377
same,mitoOX,mtOXPHOS transcripts; [4],−1.117
same,ΔΨm,[2]; [4],−1.085
same,ROS,reactive oxygen species; [4],0.379
same,GE-HTS,OXPHOS gene expression; [4],−0.690
CC[N+](C)(C)c1cccc(O)c1 [edrophonium],cyt c,cytochrome c; [6],1.045
same,cyt c,cytochrome c; [7],0.177
same,MTT,[1]; [6],−0.015
same,MTT,[1]; [7],0.901
same,Viability,C2C12 myotubes; [6],−0.291
same,Viability,C2C12 myotubes; [7],0.250
same,nucOX,nuOXPHOS transcripts; [6],−1.001
same,nucOX,nuOXPHOS transcripts; [7],−0.611
same,mitoOX,mtOXPHOS transcripts; [6],−0.183
same,mitoOX,mtOXPHOS transcripts; [7],−1.083
same,ΔΨm,[2]; [6],0.391
same,ΔΨm,[2]; [7],−0.161
same,ROS,reactive oxygen species; [6],1.006
same,ROS,reactive oxygen species; [7],0.343
same,GE-HTS,OXPHOS gene expression; [6],−0.806
same,GE-HTS,OXPHOS gene expression; [7],−0.803
O=C(O)c1cc(O)c2c(c1)C(=O)c1cc(O)cc(O)c1C2=O [emodic acid],cyt c (composite Z-score),cytochrome c; Conc 20 μM,0.505
same,MTT (composite Z-score),[1]; Conc 20 μM,−0.976
same,Viability (composite Z-score),C2C12 myotubes; Conc 20 μM,0.262
same,nucOX (composite Z-score),nuOXPHOS transcripts; Conc 20 μM,−1.210
same,mitoOX (composite Z-score),mtOXPHOS transcripts; Conc 20 μM,−1.286
same,ΔΨm (composite Z-score),[2]; Conc 20 μM,−0.966
same,ROS (composite Z-score),reactive oxygen species; Conc 20 μM,1.403
same,GE-HTS (composite Z-score),OXPHOS gene expression; Conc 20 μM,−1.336
O=C(CC[N+](=O)[O-])OC[C@H]1O[C@@H](O)[C@H](OC(=O)CC[N+](=O)[O-])[C@@H](OC(=O)CC[N+](=O)[O-])[C@@H]1OC(=O)CC[N+](=O)[O-] [endecaphyllin X],cyt c,cytochrome c; [3],−0.219
same,MTT,[1]; [3],−1.007
same,Viability,C2C12 myotubes; [3],0.158
same,nucOX,nuOXPHOS transcripts; [3],−0.566
same,mitoOX,mtOXPHOS transcripts; [3],−0.741
same,ΔΨm,[2]; [3],0.142
same,ROS,reactive oxygen species; [3],−0.292
same,GE-HTS,OXPHOS gene expression; [3],−0.660
ClC1=C(Cl)C2(Cl)C3C4CC(C5OC45)C3C1(Cl)C2(Cl)Cl (centres unmarked) [endrin],cyt c,cytochrome c; [6],0.726
same,MTT,[1]; [6],−1.710
same,Viability,C2C12 myotubes; [6],0.522
same,nucOX,nuOXPHOS transcripts; [6],−0.738
same,mitoOX,mtOXPHOS transcripts; [6],−0.385
same,ΔΨm,[2]; [6],0.129
same,ROS,reactive oxygen species; [6],0.770
same,GE-HTS,OXPHOS gene expression; [6],−0.680
CCC(C)C(=O)O[C@@H]1C[C@@]2(C)[C@H](c3ccoc3)OC(=O)CC23OC2(C)OC34[C@H](OC(=O)C(C)C)[C@@]3(O)[C@@H](OC(=O)C5(C)OC5C)[C@@]5(C)C[C@]3(O)[C@@](C)([C@H]5CC(=O)OC)C14O2 (some centres unmarked) [entandrophragmin],cyt c,cytochrome c; [5],−0.703
same,MTT,[1]; [5],−0.737
same,Viability,C2C12 myotubes; [5],0.672
same,nucOX,nuOXPHOS transcripts; [5],0.149
same,mitoOX,mtOXPHOS transcripts; [5],1.061
same,ΔΨm,[2]; [5],0.113
same,ROS,reactive oxygen species; [5],1.351
same,GE-HTS,OXPHOS gene expression; [5],0.467
CN[C@@H](C)[C@H](O)c1ccccc1 [ephedrine],cyt c,cytochrome c; [8],0.077
same,MTT,[1]; [8],−2.342
same,Viability,C2C12 myotubes; [8],−0.536
same,nucOX,nuOXPHOS transcripts; [8],−0.100
same,mitoOX,mtOXPHOS transcripts; [8],−0.056
same,ΔΨm,[2]; [8],−0.834
same,ROS,reactive oxygen species; [8],1.633
same,GE-HTS,OXPHOS gene expression; [8],−0.074
